Where two headings read alike, the source gives them in different places.
Tests used:
[1] = in vivo; details: sc
[2] = tested on: amphetamine induced stereotypy; experiment: amphetamine stereotype test (antagonism of amphetamine induced stereotypy); format: in vivo, rats; details: for ED50: Rattus norvegicus, sc
[3] = tested on: catalepsy
[4] = in vivo; details: mouse, po
Experimental: (§1) a. […] On the anti-catepressan test [based on Costal et al, Europ. […] The LD50 of the compound of Example 3 is about 500 mg/kg per oral in the mouse.

[5] = anti-catepressan test; format: in vivo; details: per oral
Experimental: as §1

[6] = S.C., Table 1, read-out: ED50, antagonism of amphetamine induced stereotypy

For `CN(C)CCCN1c2ccccc2Sc2ccc(Cl)cc21` [Chlorpromazine, reference compound], the ED50 [1] was 3 mg/kg, the ED50 [2, 6] was 1 mg/kg and the “Ratio catalepsy / anti-sterotypy” value ([3]; ratio of ED50 values S.C., Table 1) was 3.
`O=C(CCCN1CCC(O)(c2ccc(Cl)cc2)CC1)c1ccc(F)cc1` [Haloperidol, reference compound] gave an ED50 [1] of 0.3 mg/kg and an ED50 [2, 6] of 0.05 mg/kg.
For `COc1cc(N)c(Cl)cc1NC(=O)C1CCN(Cc2ccccc2)CC1` [Example 3, 5-Amino-4-chloro-2-(1^1-benzylpiperidine-4-carboxamido)-anisole], the LD50 [4] was roughly 500 mg/kg, the ED50 [5] was 5 mg/kg and the ED50 [1] was 6 mg/kg. The ED50 [2, 6] was 0.2 mg/kg, the ED50 ([2]; rats, administered sub-cutaneously, read-out: ED50, amphetamine stereotype test) was 0.2 mg/kg and the “anti-psychotic or neuroleptic activity (in words)” value ([2]; as judged by amphetamine induced stereotypy test) was “have anti-psychotic or neuroleptic activity”. The “propensity to induce catalepsy relative to anti-stereotypy activity (in words)” value ([3]; in vivo) was “weaker propensity to induce catalepsy” and the “Ratio catalepsy / anti-sterotypy” value ([3]; in vivo, sc) was 30.

— patent publication US4223034A, “Aniline derivatives” (Beecham Group Limited, priority 1977, dated 1980)
